Data from patent US9469631B2 (Boehringer Ingelheim International GmbH, priority 2012, dated 2016).

Target: human GPR119 (Homo sapiens (Human), UniProt Q8TDV5)
Experiment: AlphaScreen cAMP assay in MIN6 cells stably transfected with human GPR119
Type: cell-based
Details: Min-6/hGPR119 cells, 45 min incubation at room temperature
Experimental: The compounds of formula I according to the invention modulate the activity of the G-protein-coupled receptor GPR119. The effect of the compounds on the activation of GPR119 and on the stimulation of intracellular cAMP concentration is determined using the AlphaScreen cAMP Assay Kit (Cat. No. #6760625R) made by PerkinElmer.
MIN6 cells [Miyazaki J et al. Endocrinology. 1990 July; 127(1):126-32] are stably transfected with an expression vector for human GPR119 cDNA (Acc. No. NP_848566). Min-6/hGPR119 cells are cultured in DMEM, 10% FBS, 50 μM β-mercaptoethanol, 0.3 mg/mL Geniticin, 2 mM GlutaMAX at 37° C. 5% CO2. For the assay, the cells are seeded in Optiplates (white, 384-well, 160W-barcoded, TC, sterile with lid, Cat. No. #6007688 (Perkin Elmer); 10000 cells/well; 50 μl). The plates covered with lids are then incubated for 24 hours at 37° C./5% CO2. After the medium is aspirated from the wells completely, 10 μl of the test compound are added, the compounds are diluted using stimulating buffer (140 mM NaCl, 3.6 mM KCl, 0.5 mM NaH2PO4, 0.5 mM MgSO4, 1.5 mM CaCl2, 10 mM Hepes, 5 mM NaHCO3; pH 7.4. 0.5 mM IBMX and 0.1% BSA, the final DMSO concentration is 1%). After 45 minutes incubation at room temperature (approx. 20° C.), the cAMP concentrations are determined using the AlphaScreen cAMP Assay Kit (Cat. No. #6760625R from PerkinElmer).

human GPR119, sequence (Q8TDV5 whole entry): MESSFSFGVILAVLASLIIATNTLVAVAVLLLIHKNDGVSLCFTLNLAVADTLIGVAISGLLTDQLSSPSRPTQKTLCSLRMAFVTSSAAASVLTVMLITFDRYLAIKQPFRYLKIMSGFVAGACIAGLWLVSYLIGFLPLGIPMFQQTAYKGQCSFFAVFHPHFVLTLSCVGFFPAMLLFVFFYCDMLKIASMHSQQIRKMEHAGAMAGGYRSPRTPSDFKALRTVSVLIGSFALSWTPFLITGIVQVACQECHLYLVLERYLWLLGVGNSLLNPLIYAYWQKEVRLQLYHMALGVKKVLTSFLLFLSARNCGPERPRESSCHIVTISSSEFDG

Compound | EC50 [nM]
CN(C)C(=O)Nc1nnc(-c2ccc(C(=O)N(C3CC3)C3CCN(C(=O)OC(C)(C)C)CC3)cc2)s1 [Example 76, 4-(Cyclopropyl-{4-[5-(3,3-dimethyl-ureido)-[1,3,4]thiadiazol-2-yl]-benzoyl}-amino)-piperidine-1-carboxylic acid tert-butyl ester] | 233
CC(C)(C)OC(=O)N1CCC(N(C(=O)c2ccc(-n3ccnc3)cc2)C2CC2)CC1 [Example 52, 4-[Cyclopropyl-(4-imidazol-1-yl-benzoyl)-amino]-piperidine-1-carboxylic acid tert-butyl ester] | 832
CC(C)(C)OC(=O)N1CC[C@@H](N(C(=O)c2ccc(-c3cnco3)cc2)C2CC2)[C@@H](F)C1 (single isomer, unassigned) [Example 41] | 30
CC(C)(C)OC(=O)N1CCC(N(C(=O)c2ccc(-c3ccc(C#N)cc3)cc2)C2CC2)CC1 [Example 54, 4-[(4′-Cyano-biphenyl-4-carbonyl)-cyclopropyl-amino]-piperidine-1-carboxylic acid tert-butyl ester] | 84
CC(C)(C)OC(=O)N1CCC(N(C(=O)c2ccc(-c3nnc(N)s3)cc2)C2CC2)CC1 [Example 66, 4-{[4-(5-Amino-[1,3,4]thiadiazol-2-yl)-benzoyl]-cyclopropyl-amino}-piperidine-1-carboxylic acid tert-butyl ester] | 875
CC(C)(C)OC(=O)N1CCC(N(C(=O)c2ccc(-c3cncc(C#N)c3)cc2)C2CC2)CC1 [Example 113, 4-{[4-(5-Cyano-pyridin-3-yl)-benzoyl]-cyclopropyl-amino}-piperidine-1-carboxylic acid tert-butyl ester] | 48
CN(C)c1ccc(-c2ccc(C(=O)N(C3CC3)C3CCN(C(=O)OC(C)(C)C)CC3)cc2)cn1 [Example 114, 4-{Cyclopropyl-[4-(6-dimethylamino-pyridin-3-yl)-benzoyl]-amino}-piperidine-1-carboxylic acid tert-butyl ester] | 229
CC(C)(C)OC(=O)N1CCC(N(C(=O)c2ccc(-c3ncon3)cc2)C2CC2)CC1 [Example 25, 4-[Cyclopropyl-(4-[1,2,4]oxadiazol-3-yl-benzoyl)-amino]-piperidine-1-carboxylic acid tert-butyl ester] | 238
CC(C)(C)OC(=O)N1CCC(N(C(=O)c2ccc(-c3ccc(C#N)c(F)c3)cc2)C2CC2)CC1 [Example 106, 4-[(4′-Cyano-3′-fluoro-biphenyl-4-carbonyl)-cyclopropyl-amino]-piperidine-1-carboxylic acid tert-butyl ester] | 78
CC(C)(C)OC(=O)N1CCC(N(C(=O)c2ccc(-n3cncn3)cc2)C2CC2)CC1 [Example 63, 4-[Cyclopropyl-(4-[1,2,4]triazol-1-yl-benzoyl)-amino]-piperidine-1-carboxylic acid tert-butyl ester] | 127
CC(C)(C)OC(=O)N1CCC(N(C(=O)c2ccc(-c3cnco3)cc2F)C2CC2)CC1 [Example 35, 4-[Cyclopropyl-(2-fluoro-4-oxazol-5-yl-benzoyl)-amino]-piperidine-1-carboxylic acid tert-butyl ester] | 45
CC(C)(C)OC(=O)N1CCC(N(C(=O)c2ccc(-n3cccn3)cc2)C2CC2)CC1 [Example 71, 4-[Cyclopropyl-(4-pyrazol-1-yl-benzoyl)-amino]-piperidine-1-carboxylic acid tert-butyl ester] | 637
CCCOC(=O)N1CCC(N(C(=O)c2ccc(-c3cnco3)cc2)C2CC2)CC1 [Example 123, 4-[Cyclopropyl-(4-oxazol-5-yl-benzoyl)-amino]-piperidine-1-carboxylic acid propyl ester] | 80
CC(C)(C)OC(=O)N1CCC(N(C(=O)c2ccc(-c3nccs3)cc2)C2CC2)CC1 [Example 59, 4-[Cyclopropyl-(4-thiazol-2-yl-benzoyl)-amino]-piperidine-1-carboxylic acid tert-butyl ester] | 332
Cn1ncnc1-c1ccc(C(=O)N(C2CC2)C2CCN(C(=O)OC(C)(C)C)CC2)cc1 [Example 18, 4-{Cyclopropyl-[4-(2-methyl-2H-[1,2,4]triazol-3-yl)-benzoyl]-amino}-piperidine-1-carboxylic acid tert-butyl ester] | 1000
Cc1noc(-c2ccc(C(=O)N(C3CC3)C3CCN(C(=O)OC(C)(C)C)CC3)cc2)n1 [Example 60, 4-{Cyclopropyl-[4-(3-methyl-[1,2,4]oxadiazol-5-yl)-benzoyl]-amino}-piperidine-1-carboxylic acid tert-butyl ester] | 347

Compound | EC50 [nM]
CC(C)(C)OC(=O)N1CCC(N(C(=O)c2ccc(-n3cnc(-c4ccccc4)c3)cc2)C2CC2)CC1 [Example 56, 4-{Cyclopropyl-[4-(4-phenyl-imidazol-1-yl)-benzoyl]-amino}-piperidine-1-carboxylic acid tert-butyl ester] | 104
CC(C)(C)OC(=O)N1CCC(N(C(=O)c2ccc(-c3ccncc3)cc2)C2CC2)CC1 [Example 70, 4-[Cyclopropyl-(4-pyridin-4-yl-benzoyl)-amino]-piperidine-1-carboxylic acid tert-butyl ester] | 41
CC(C)(C)OC(=O)N1CCC(N(C(=O)c2ccc(-c3cnco3)c([N+](=O)[O-])c2)C2CC2)CC1 [Example 7, 4-[Cyclopropyl-(3-nitro-4-oxazol-5-yl-benzoyl)-amino]-piperidine-1-carboxylic acid tert-butyl ester] | 78
Cn1cnc(-c2ccc(C(=O)N(C3CC3)C3CCN(C(=O)OC(C)(C)C)CC3)cc2)n1 [Example 17, 4-{Cyclopropyl-[4-(1-methyl-1H-[1,2,4]triazol-3-yl)-benzoyl]-amino}-piperidine-1-carboxylic acid tert-butyl ester] | 2220
Cc1nnc(-c2ccc(C(=O)N(C3CC3)C3CCN(C(=O)OC(C)(C)C)CC3)cc2)o1 [Example 61, 4-{Cyclopropyl-[4-(5-methyl-[1,3,4]oxadiazol-2-yl)-benzoyl]-amino}-piperidine-1-carboxylic acid tert-butyl ester] | 513
CC(C)OC(=O)N1CCC(N(C(=O)c2ccc(-c3ccncc3C#N)cc2)C2CC2)CC1 [Example 31, 4-{[4-(3-Cyano-pyridin-4-yl)-benzoyl]-cyclopropyl-amino}-piperidine-1-carboxylic acid isopropyl ester] | 49
CC(C)OC(=O)N1CCC(N(C(=O)c2ccc(-c3ccc(C(N)=O)cc3)cc2)C2CC2)CC1 [Example 129, 4-[(4′-Carbamoyl-biphenyl-4-carbonyl)-cyclopropyl-amino]-piperidine-1-carboxylic acid isopropyl ester] | 113
CC(C)(C)OC(=O)N1CCC(N(C(=O)c2ccc(-n3cnc(-c4ccccc4)c3)c(Cl)c2)C2CC2)CC1 [Example 81, 4-{[3-Chloro-4-(4-phenyl-imidazol-1-yl)-benzoyl]-cyclopropyl-amino}-piperidine-1-carboxylic acid tert-butyl ester] | 148
O=C(OCC1CCOCC1)N1CCC(N(C(=O)c2ccc(-c3cnco3)cc2)C2CC2)CC1 [Example 14, 4-[Cyclopropyl-(4-oxazol-5-yl-benzoyl)-amino]-piperidine-1-carboxylic acid tetrahydro-pyran-4-ylmethyl ester] | 1080
CC(C)(C)OC(=O)N1CCC(N(C(=O)c2ccc(-c3ccc(NS(C)(=O)=O)cc3)cc2)C2CC2)CC1 [Example 92, 4-[Cyclopropyl-(4′-methanesulfonylamino-biphenyl-4-carbonyl)-amino]-piperidine-1-carboxylic acid tert-butyl ester] | 79
COc1ccc(-c2ccc(C(=O)N(C3CC3)C3CCN(C(=O)OC(C)(C)C)CC3)cc2)cc1 [Example 86, 4-[Cyclopropyl-(4′-methoxy-biphenyl-4-carbonyl)-amino]-piperidine-1-carboxylic acid tert-butyl ester] | 401
CC(C)OC(=O)N1CCC(N(C(=O)c2ccc(-c3cnco3)cc2)C2CC2)CC1 [Example 118, 4-[Cyclopropyl-(4-oxazol-5-yl-benzoyl)-amino]-piperidine-1-carboxylic acid isopropyl ester] | 62
CC(C)(C)OC(=O)N1CCC(N(C(=O)c2ccc(-c3ccc(N4CCOCC4)cc3)cc2)C2CC2)CC1 [Example 101, 4-[Cyclopropyl-(4′-morpholin-4-yl-biphenyl-4-carbonyl)-amino]-piperidine-1-carboxylic acid tert-butyl ester] | 127
Cc1nc(-c2ccccc2)cn1-c1ccc(C(=O)N(C2CC2)C2CCN(C(=O)OC(C)(C)C)CC2)cc1 [Example 84, 4-{Cyclopropyl-[4-(2-methyl-4-phenyl-imidazol-1-yl)-benzoyl]-amino}-piperidine-1-carboxylic acid tert-butyl ester] | 96
CC1CC(N(C(=O)c2ccc(-c3cnco3)cc2)C2CC2)CCN1C(=O)OC(C)(C)C (stereo not shown) [Example 1, 4-[Cyclopropyl-(4-oxazol-5-yl-benzoyl)-amino]-2-methyl-piperidine-1-carboxylic acid tert-butyl ester] | 157
